According to PMC12377202, “Design, synthesis, and cytotoxic evaluation of quinazoline-based derivatives as VEGER-2 inhibitors: comparative study against EGFR kinase activity, induction of apoptosis, and molecular docking study” (RSC Advances, 2025):

Columns and labels:
MCF-7 = assay: MTT anti-proliferative assay, MCF-7; assay type: cell-based, human; details: Homo sapiens, MCF7
HepG-2 = assay: MTT anti-proliferative assay, HepG-2; assay type: cell-based, human; details: Homo sapiens, HepG2
K-562 = assay: MTT anti-proliferative assay, K-562; assay type: cell-based, human; details: Homo sapiens, K562
caspase-3 = assay: Caspase-3 expression level in HepG-2 cells; assay type: cell-based, human; details: for Caspase-3 ± SE: HepG-2, at IC50 concentrations, control 0.460
Experimental: (§1) All synthesized compounds were tested at their cytotoxic concentrations in HepG-2 cells for analysis of gene expression levels of apoptotic markers caspase-3, caspase-9, TNF-α, and IL-6 proteins, and only two active compounds were tested for BAX and Bcl-2 proteins.
(§2) through Flow cytometric analysis.
(§3) Pellets were collected again and incubated with
(§4) Total RNA from vehicle-treated
(§5) (Thermo Scientific, USA).
(§6) All experiments were performed in […]

caspase-9 = assay: Caspase-9 expression level in HepG-2 cells; assay type: cell-based, human; details: for Caspase-9 ± SE: HepG-2, at IC50 concentrations, control 11.01
Experimental: as §1, §2, §3, §4, §5, §6

TNF-alpha = TNF-alpha level in HepG-2 cells; assay type: cell-based, human; details: control 43.48
Experimental: as §1, §2, §3, §4, §5, §6

IL-6R = IL-6R level in HepG-2 cells; assay type: cell-based, human; details: control 44.10
Experimental: as §1, §2, §3, §4, §5, §6

BAX = BAX gene expression in HepG-2 cells; assay type: cell-based, human
Experimental: as §1, §2, §3, §4, §5, §6

Bcl-2 = Bcl-2 gene expression in HepG-2 cells; assay type: cell-based, human
Experimental: as §1, §2, §3, §4, §5, §6

BAX/Bcl-2 = BAX/Bcl-2 ratio in HepG-2 cells; assay type: cell-based, human
Experimental: as §1, §2, §3, §4, §5, §6

EGFR = EGFR (Homo sapiens, UniProt P00533); assay: EGFR kinase inhibition assay (ELISA kit)
VEGFR-2 = VEGFR-2 (Homo sapiens, UniProt P35968); assay: In vitro VEGFR-2 inhibitory assay (ELISA kit); details: VEGFR-2 kinase
VEGFR-2, sequence (P35968 20-1356): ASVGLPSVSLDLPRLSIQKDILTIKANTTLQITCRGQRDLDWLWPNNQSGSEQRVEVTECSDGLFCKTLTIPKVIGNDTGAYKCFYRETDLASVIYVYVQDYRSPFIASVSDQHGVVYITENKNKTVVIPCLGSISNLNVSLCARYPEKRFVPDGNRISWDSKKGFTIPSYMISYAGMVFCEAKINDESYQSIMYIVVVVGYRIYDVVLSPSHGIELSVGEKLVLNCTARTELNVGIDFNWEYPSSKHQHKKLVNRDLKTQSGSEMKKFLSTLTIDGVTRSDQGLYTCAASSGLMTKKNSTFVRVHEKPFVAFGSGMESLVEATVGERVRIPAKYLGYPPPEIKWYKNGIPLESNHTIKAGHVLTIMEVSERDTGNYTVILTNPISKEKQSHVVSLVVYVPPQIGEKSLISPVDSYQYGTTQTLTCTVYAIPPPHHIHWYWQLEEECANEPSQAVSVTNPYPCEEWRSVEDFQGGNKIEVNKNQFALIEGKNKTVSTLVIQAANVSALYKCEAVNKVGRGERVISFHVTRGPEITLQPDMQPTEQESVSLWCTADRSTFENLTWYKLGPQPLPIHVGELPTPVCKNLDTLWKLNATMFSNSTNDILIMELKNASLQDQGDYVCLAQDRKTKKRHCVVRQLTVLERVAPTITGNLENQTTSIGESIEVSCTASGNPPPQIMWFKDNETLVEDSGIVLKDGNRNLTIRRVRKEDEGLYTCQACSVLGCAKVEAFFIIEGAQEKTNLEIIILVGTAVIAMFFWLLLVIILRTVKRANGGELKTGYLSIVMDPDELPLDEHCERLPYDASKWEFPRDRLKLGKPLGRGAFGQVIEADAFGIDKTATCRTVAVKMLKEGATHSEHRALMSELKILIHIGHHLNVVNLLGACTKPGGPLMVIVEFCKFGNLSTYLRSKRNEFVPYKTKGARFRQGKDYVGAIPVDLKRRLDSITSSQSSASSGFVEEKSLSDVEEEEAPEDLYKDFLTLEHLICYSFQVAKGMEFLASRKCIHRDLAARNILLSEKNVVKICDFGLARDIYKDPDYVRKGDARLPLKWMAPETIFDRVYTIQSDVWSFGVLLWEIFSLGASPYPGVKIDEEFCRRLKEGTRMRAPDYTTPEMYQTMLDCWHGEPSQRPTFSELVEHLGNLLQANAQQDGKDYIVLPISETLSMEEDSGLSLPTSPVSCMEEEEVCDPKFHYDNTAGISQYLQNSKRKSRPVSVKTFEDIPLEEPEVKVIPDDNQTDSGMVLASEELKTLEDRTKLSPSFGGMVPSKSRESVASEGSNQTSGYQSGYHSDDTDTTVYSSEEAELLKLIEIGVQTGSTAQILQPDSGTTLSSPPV

EGFR, sequence (P00533 25-1210): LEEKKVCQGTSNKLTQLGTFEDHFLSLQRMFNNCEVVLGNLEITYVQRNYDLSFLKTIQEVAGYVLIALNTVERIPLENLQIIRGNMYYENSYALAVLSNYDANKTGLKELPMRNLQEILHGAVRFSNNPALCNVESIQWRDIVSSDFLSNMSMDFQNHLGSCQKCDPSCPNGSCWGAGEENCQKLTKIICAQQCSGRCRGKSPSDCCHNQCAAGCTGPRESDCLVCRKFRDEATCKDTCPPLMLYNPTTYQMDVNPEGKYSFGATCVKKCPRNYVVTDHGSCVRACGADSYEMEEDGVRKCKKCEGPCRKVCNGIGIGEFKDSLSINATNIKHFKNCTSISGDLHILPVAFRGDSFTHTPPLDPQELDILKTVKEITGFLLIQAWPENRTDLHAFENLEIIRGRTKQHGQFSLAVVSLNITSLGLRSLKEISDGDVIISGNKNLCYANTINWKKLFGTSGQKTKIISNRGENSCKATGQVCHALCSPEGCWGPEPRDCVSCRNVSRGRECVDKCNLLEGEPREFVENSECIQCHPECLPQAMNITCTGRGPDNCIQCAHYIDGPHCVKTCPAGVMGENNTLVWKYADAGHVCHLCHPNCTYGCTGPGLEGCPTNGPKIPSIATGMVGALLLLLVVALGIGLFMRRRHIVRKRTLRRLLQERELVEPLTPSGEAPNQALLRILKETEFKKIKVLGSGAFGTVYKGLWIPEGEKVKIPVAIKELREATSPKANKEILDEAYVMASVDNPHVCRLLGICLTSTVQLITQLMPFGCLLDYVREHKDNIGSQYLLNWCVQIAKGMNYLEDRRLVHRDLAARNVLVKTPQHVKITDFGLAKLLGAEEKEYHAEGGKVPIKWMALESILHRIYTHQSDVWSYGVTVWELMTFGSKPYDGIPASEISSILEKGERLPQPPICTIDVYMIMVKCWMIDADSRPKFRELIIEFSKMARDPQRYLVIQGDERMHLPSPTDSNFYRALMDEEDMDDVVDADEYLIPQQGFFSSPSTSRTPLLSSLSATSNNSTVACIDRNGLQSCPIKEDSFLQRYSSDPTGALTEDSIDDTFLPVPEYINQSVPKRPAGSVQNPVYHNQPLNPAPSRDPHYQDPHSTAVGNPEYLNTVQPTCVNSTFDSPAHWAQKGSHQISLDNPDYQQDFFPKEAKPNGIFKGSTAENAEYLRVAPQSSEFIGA

- Activity % (EGFR; HepG2): 16.297%
- Inhibition % (EGFR; HepG2): 83.703%
- Activity % (EGFR; K-562): 21.954%
- Inhibition % (EGFR; K-562): 78.046%
- Activity % (EGFR; MCF7): 19.563%
- Inhibition % (EGFR; MCF7): 80.437%
- Activity % (VEGFR-2; HepG2): 14.760%
- Inhibition % (VEGFR-2; HepG2): 85.240%
- Activity % (VEGFR-2; K-562): 35.983%
- Inhibition % (VEGFR-2; K-562): 64.017%
- Activity % (VEGFR-2; MCF7): 19.964%
- Inhibition % (VEGFR-2; MCF7): 80.036%
SMILES: O=C(Cn1cnc2cc([N+](=O)[O-])ccc2c1=O)Nc1ccccc1 [9a, 2-(7-Nitro-4-oxoquinazolin-3(4H)-yl)-N-phenylacetamide]
- viability at 0.195 µmol (MCF-7; MCF-7, 0.195 umol): 56.6%
- cytotoxicity at 0.195 µmol (MCF-7; MCF-7, 0.195 umol, read-out: Toxicity %): 43.4%
- viability at 0.391 µmol (MCF-7; MCF-7, 0.391 umol): 41.8%
- cytotoxicity at 0.391 µmol (MCF-7; MCF-7, 0.391 umol, read-out: Toxicity %): 58.2%
- viability at 0.781 µmol (MCF-7; MCF-7, 0.781 umol): 27.6%
- cytotoxicity at 0.781 µmol (MCF-7; MCF-7, 0.781 umol, read-out: Toxicity %): 72.4%
- viability at 1.563 µmol (MCF-7; MCF-7, 1.563 umol): 13.5%
- cytotoxicity at 1.563 µmol (MCF-7; MCF-7, 1.563 umol, read-out: Toxicity %): 86.5%
- viability at 3.125 µmol (MCF-7; MCF-7, 3.125 umol): 9.94%
- cytotoxicity at 3.125 µmol (MCF-7; MCF-7, 3.125 umol, read-out: Toxicity %): 90.1%
- viability at 6.25 µmol (MCF-7; MCF-7, 6.25 umol): 8.66%
- cytotoxicity at 6.25 µmol (MCF-7; MCF-7, 6.25 umol, read-out: Toxicity %): 91.3%
- viability at 12.5 µmol (MCF-7; MCF-7, 12.5 umol): 6.99%
- cytotoxicity at 12.5 µmol (MCF-7; MCF-7, 12.5 umol, read-out: Toxicity %): 93%
- viability at 25 µmol (MCF-7; MCF-7, 25 umol): 6.42%
- cytotoxicity at 25 µmol (MCF-7; MCF-7, 25 umol, read-out: Toxicity %): 93.6%
- IC50 (MCF-7; MTT, MCF-7, read-out: Cytotoxicity against cancer cells IC50 MCF-7): 282.4 ± 1.4 nM
- viability at 0.195 µg/mL (HepG-2; HepG-2, 0.195 ug/ml): 45.9%
- cytotoxicity at 0.195 µg/mL (HepG-2; HepG-2, 0.195 ug/ml, read-out: Toxicity %): 54.1%
- viability at 0.391 µg/mL (HepG-2; HepG-2, 0.391 ug/ml): 29.7%
- cytotoxicity at 0.391 µg/mL (HepG-2; HepG-2, 0.391 ug/ml, read-out: Toxicity %): 70.3%
- viability at 0.781 µg/mL (HepG-2; HepG-2, 0.781 ug/ml): 21%
- cytotoxicity at 0.781 µg/mL (HepG-2; HepG-2, 0.781 ug/ml, read-out: Toxicity %): 79%
- viability at 1.563 µg/mL (HepG-2; HepG-2, 1.563 ug/ml): 12.7%
- cytotoxicity at 1.563 µg/mL (HepG-2; HepG-2, 1.563 ug/ml, read-out: Toxicity %): 87.3%
- viability at 3.125 µg/mL (HepG-2; HepG-2, 3.125 ug/ml): 9.56%
- cytotoxicity at 3.125 µg/mL (HepG-2; HepG-2, 3.125 ug/ml, read-out: Toxicity %): 90.4%
- viability at 6.25 µg/mL (HepG-2; HepG-2, 6.25 ug/ml): 6.96%
- cytotoxicity at 6.25 µg/mL (HepG-2; HepG-2, 6.25 ug/ml, read-out: Toxicity %): 93%
- viability at 12.5 µg/mL (HepG-2; HepG-2, 12.5 ug/ml): 6.04%
- cytotoxicity at 12.5 µg/mL (HepG-2; HepG-2, 12.5 ug/ml, read-out: Toxicity %): 94%
- viability at 25 µg/mL (HepG-2; HepG-2, 25 ug/ml): 5.71%
- cytotoxicity at 25 µg/mL (HepG-2; HepG-2, 25 ug/ml, read-out: Toxicity %): 94.3%
- IC50 (HepG-2; MTT, HepG-2, read-out: Cytotoxicity against cancer cells IC50 HepG-2): 187.1 ± 1.7 nM
- viability at 0.195 µmol (K-562; K-562, 0.195 umol): 66.6%
- cytotoxicity at 0.195 µmol (K-562; K-562, 0.195 umol, read-out: Toxicity %): 33.4%
- viability at 0.391 µmol (K-562; K-562, 0.391 umol): 49.6%
- cytotoxicity at 0.391 µmol (K-562; K-562, 0.391 umol, read-out: Toxicity %): 50.4%
- viability at 0.781 µmol (K-562; K-562, 0.781 umol): 30.8%
- cytotoxicity at 0.781 µmol (K-562; K-562, 0.781 umol, read-out: Toxicity %): 69.2%
- viability at 1.563 µmol (K-562; K-562, 1.563 umol): 16.5%
- cytotoxicity at 1.563 µmol (K-562; K-562, 1.563 umol, read-out: Toxicity %): 83.5%
- viability at 3.125 µmol (K-562; K-562, 3.125 umol): 8.91%
- cytotoxicity at 3.125 µmol (K-562; K-562, 3.125 umol, read-out: Toxicity %): 91.1%
- viability at 6.25 µmol (K-562; K-562, 6.25 umol): 8.78%
- cytotoxicity at 6.25 µmol (K-562; K-562, 6.25 umol, read-out: Toxicity %): 91.2%
- viability at 12.5 µmol (K-562; K-562, 12.5 umol): 7.76%
- cytotoxicity at 12.5 µmol (K-562; K-562, 12.5 umol, read-out: Toxicity %): 92.2%
- viability at 25 µmol (K-562; K-562, 25 umol): 7.02%
- cytotoxicity at 25 µmol (K-562; K-562, 25 umol, read-out: Toxicity %): 93%
- IC50 (K-562; MTT, K-562, read-out: Cytotoxicity against cancer cells IC50 K-562): 385.8 ± 3.2 nM
- Caspase-3 ± SE (caspase-3): 0.98 ± 0.04 ng/mL
- Caspase-3 ± SE (caspase-3; listed as N1): 0.98 ng/mL
- caspase-3 expression level, fold increase (caspase-3; HepG-2, vs control cells): 2.1 fold
- Caspase-9 ± SE (caspase-9): 30.57 ± 3.39 ng/L
- Caspase-9 ± SE (caspase-9; listed as N1): 30.57 ng/L
- caspase-9 expression level, fold increase (caspase-9; HepG-2, vs control cells): 2.77 fold
- TNF-alpha ±SE (TNF-alpha; HepG-2, at IC50 concentrations): 23.6 ± 1.35 ng/L
- TNF-alpha ±SE (TNF-alpha; raw data, HepG2): 9.13 ng/L
- IL-6R ± SE (IL-6R; HepG-2, at IC50 concentrations): 26.0 ± 0.97 ng/L
- IL-6 ±SE (IL-6R; raw data, HepG2): 14.73 ng/L
- fold increase in BAX expression level (BAX; HepG-2, vs control): 6 fold
- BAX expression level (BAX; HepG-2, control 0.44): 2.65 fold change
- Gene expression (fold change) BAX (BAX; HepG-2, control 0.4448): 2.6533 ± 0.40 fold change
- fold reduction in Bcl-2 expression level (Bcl-2; HepG-2, vs control): 2.8 fold
- Bcl-2 expression level (Bcl-2; HepG-2, control 3.49): 1.23 fold change
- Gene expression (fold change) Bcl-2 (Bcl-2; HepG-2, control 3.4983): 1.2368 ± 0.30 fold change
- Gene expression (fold change) BAX/Bcl-2 ratio (BAX/Bcl-2; control 0.1260): 2.1544 ± 0.96
- BAX/Bcl-2 ratio (BAX/Bcl-2; control […]): 2.15
